Patent US9050353B2, “Use of icariin and epimedium flavonoids containing icariin to treat diseases associated with myelin sheath lesion” (Xuanwu Hospital of Capital Medical University, priority 2010, dated 2015)

What was measured:
[1] = test system: myeloid tissue myelinoclasis in EAE mice model; test: Myelinoclasis of myeloid tissue, LFB staining, EAE mice; type: in vivo; settings: scale 0-4
Procedure: (§1) Preparation of mice model and administration: experimental autoimmune encephalomyelitis (EAE) mice model is an important tool for studying various human demyelinating diseases of nervous system. In the present experiment, the preparation of EAE mice model was performed by immunizing female C57BL/6J mice with myelin sheath oligodendroglial cell surface glycoprotein MOG35-55. That is, the mice were subcutaneously injected at dorsal part of spinal column with 0.2 mL of MOG35-55 antigen elixir, and 0.2 ml of bordetella pertussis solution was intraperitoneally injected at the time of immunization injection and 48 h thereafter, respectively. Icariin was intragastrically administered after the last injection of bordetella pertussis solution, for consecutive 3 weeks.
Experimental objective: the myelinoclasis of myeloid tissue of EAE model mice were assayed by Luxol Fast Blue (LFB) staining, and the intervention effects of icariin on this pathological change were studied.
Experimental method: the mice were anesthetized with 10% chloral hydrate on the 29th day of experiment, fixed by perfusion of 4% paraformaldehyde, myeloid tissues were taken for making paraffin sections, section thickness […]. Stained with LFB, observed under microscope, and scored according to the following standard: 0 score, absence of myelinoclasis; 1 score, one small range of myelinoclasis; 2 score, 2 or 3 small ranges of myelinoclasis; 3 score, 1 to 2 large ranges of myelinoclasis; 4 score, large ranges of myelinoclasis accumulatively existing in 20% or more of white matter regions.

[2] = test system: inflammatory cell infiltration in spinal cord tissues of EAE mice model; test: Inflammatory cell infiltration in spinal cord, HE staining, EAE mice; type: in vivo; settings: scale 0-4
Procedure: as §1
Experimental objective: the pathological changes of spinal cord in EAE model, especially inflammatory cell infiltration situations was assayed by hematoxylin-eosin (HE) staining test, and the intervention effects of […] on these pathological changes were observed.
Experimental method: the mice were anesthetized with 10% chloral hydrate on the 28th day of experiment, fixed by perfusion of 4% paraformaldehyde, spinal cord tissues were taken for making paraffin sections, section thickness […]. Stained with HE, observed under microscope, and scored according to the following standard: 0 score, absence of cell infiltration; 1 score, spinal meninge cell infiltration; 2 score, 1 to 4 small ranges of cell infiltration around vessels; 3 score, 5 or more small ranges of cell infiltration around vessels, or one or more accumulatively substantial large range of cell infiltration; 4 score, a large number of cell infiltration ranges accumulatively existing in 20% or more of white matter regions.

IL-6 = test: Serum IL-6 content by ELISA, EAE mice; type: in vivo
Procedure: as §1
(§2) Experimental objective: interleukin-1 (IL-1) and IL-6 are important inflammatory cytokines, and have promoting effects on inflammatory reactions. This experiment used enzyme linked immunosorbent assay (ELISA) to measure contents of IL-1 and IL-6 in serums of EAE mice model, and the effects of icariin on these contents were observed.
(§3) Experimental method: mice were anesthetized with pentobarbital sodium, blood sample was taken from abdominal aorta, stood at room temperature for 2 h, centrifuged at 3000 rpm for 20 min, and supernatant was taken, stored at −80° C. for use. The operation was performed strictly according to the steps of specification of ELISA kit. Optical density was measured with ELIASA at 450 nm. The corresponding contents of IL-1 and IL-6 were calculated with the measured OD values on standard curves.

[3] = test system: experimental autoimmune encephalomyelitis (EAE) mice model; test: Nervous function damage score in EAE mice model; type: in vivo, C57BL/6J mice; settings: peak of attack, scale 0-5
Procedure: as §1
Nervous function test method: the ethological changes of mice were observed by two experimenters every day using blind method. Scoring standard: 0 score, absence of symptom; 1 score, decrease of tail tension, evident slight gait awkward; 2 score, disappearance of tail tension, moderate gait abnormal, deficient in maintaining gesture; 3 score, limb strength weak; 4 score, limb paralysis; 5 score, near death or died.

[4] = test system: peripheral blood CD4+ and CD8+ T cells; test: Peripheral blood T cell subgroup by flow cytometer, EAE mice; type: in vivo
Procedure: as §1
Experimental objective: one common feature of autoimmune diseases is the […]. In this experiment, the numbers of CD4+ and CD8+ cells in peripheral blood T cell subgroup of EAE mice mode were measured by flow cytometer (FACS), and the ratio of them was obtained; and the effects of icariin on these changes were observed.
Experimental method: mice were anesthetized with pentobarbital sodium, blood sample was taken from abdominal aorta, stood at room temperature for 2 h, centrifuged at 3000 rpm for 20 min, and cells were taken, added with anti-CD4+, CD8+ T cell antibodies with different markers, then the percentages of CD4+, CD8+ cells in T lymphocytes were measured by flow cytometer, and the CD4+/CD8+ T cells ratio was calculated.

[5] = test system: myelin basic protein (MBP); test: Spinal cord MBP by Western blot, EAE mice; type: in vivo
Procedure: as §1
(§4) Experimental objective: myelin sheath is formed with prominences of oligodendroglial cells. CNPase, myelin basic protein (MBP) are marker proteins of mature oligodendroglial cells. The present experiment was to observe the expression of CNPase and MBP to represent the content of oligodendroglial cells in spinal cord of EAE model mice by Western blot method; and to study the effects of icariin on it.
(§5) Experimental method: the mice were anesthetized and sacrificed, fresh spinal cord was taken on ice, total protein was extracted by cleavage on ice, to prepare Western blot sample, added separately with CNPase, MBP primary antibodies and incubated, added with corresponding secondary antibodies, ECL colorated, Kodak film exposed. Pictures were analyzed with Image J software and standardized with β-actin.

CNPase = test: Spinal cord CNPase by Western blot, EAE mice; type: in vivo
Procedure: as §1, §4, §5

IL-1 = test: Serum IL-1 content by ELISA, EAE mice; type: in vivo
Procedure: as §1, §2, §3

`COc1ccc(-c2oc3c(CC=C(C)C)c(OC4OC(CO)C(O)C(O)C4O)cc(O)c3c(=O)c2OC2OC(C)C(O)C(O)C2O)cc1` (stereo not drawn) [icariin, 3-((6-deoxymannopyranosyl)oxy)-7-(glucopyranosyloxy)-5-hydroxy-2-(4-methoxyphenyl)-8-(3-methyl-2-butenyl)-4H-1-benzopyran-4-ketone] was tested, and the “Myelinoclasis (LFB staining score)” value ([1]; 3 mg/kg) was 0.91 ± 0.21, the “Myelinoclasis (LFB staining score)” value ([1]; 10 mg/kg) was 0.78 ± 0.16 and the “Myelinoclasis (LFB staining score)” value ([1]; 30 mg/kg) was 0.66 ± 0.20. The “Inflammatory cell infiltration (HE staining score)” value (from here on “Inflammatory cell infiltration”) ([2]; 3 mg/kg) was 2.08 ± 0.09, the “Inflammatory cell infiltration” value ([2]; 10 mg/kg) was 1.58 ± 0.16 and the “Inflammatory cell infiltration” value ([2]; 30 mg/kg) was 1.18 ± 0.21. It also gave an IL-6 content (IL-6; 3 mg/kg) of 0.147 ± 0.011 pg/mL, an IL-6 content (IL-6; 10 mg/kg) of 0.142 ± 0.013 pg/mL and an IL-6 content (IL-6; 30 mg/kg) of 0.126 ± 0.011 pg/mL. For the same compound, the “Nervous function damage score” value ([3]; 3 mg/kg intragastric) was 0.57 ± 0.49, the “Nervous function damage score” value ([3]; 10 mg/kg intragastric) was 0.32 ± 0.52 and the “Nervous function damage score” value ([3]; 30 mg/kg intragastric) was 0.13 ± 0.34. The “CD4 + T cells” value ([4]; 3 mg/kg) was 52.78 ± 3.30%, the “CD4 +/CD8 + ratio” value ([4]; 3 mg/kg) was 1.25 ± 0.20 and the “CD8 + T cells” value ([4]; 3 mg/kg) was 42.61 ± 3.10%. For the same compound, the “CD4 + T cells” value ([4]; 10 mg/kg) was 58.89 ± 1.27 %, the “CD4 +/CD8 + ratio” value ([4]; 10 mg/kg) was 1.62 ± 0.06 and the “CD8 + T cells” value ([4]; 10 mg/kg) was 36.43 ± 0.38 %. For the same compound, the “CD4 + T cells” value ([4]; 30 mg/kg) was 55.81 ± 1.41%, the “CD4 +/CD8 + ratio” value ([4]; 30 mg/kg) was 1.39 ± 0.12 and the “CD8 + T cells” value ([4]; 30 mg/kg) was 40.20 ± 1.79%. For the same compound, the “MBP/actin Integration grey level” value ([5]; 3 mg/kg) was 0.98 ± 0.13, the “MBP/actin Integration grey level” value ([5]; 10 mg/kg) was 1.07 ± 0.08 and the “MBP/actin Integration grey level” value ([5]; 30 mg/kg) was 1.11 ± 0.06. For the same compound, the “CNPase/actin Integration grey level” value (CNPase; 3 mg/kg) was 1.16 ± 0.04, the “CNPase/actin Integration grey level” value (CNPase; 10 mg/kg) was 1.28 ± 0.07 and the “CNPase/actin Integration grey level” value (CNPase; 30 mg/kg) was 1.33 ± 0.05. The IL-1 content (IL-1; 3 mg/kg) was 0.119 ± 0.003 pg/mL, the IL-1 content (IL-1; 10 mg/kg) was 0.114 ± 0.001 pg/mL and the IL-1 content (IL-1; 30 mg/kg) was 0.113 ± 0.002 pg/mL.
